Patent US11447472B2, “Polymorophs of 5-aza-4′-thio-2′-deoxycytidine” (Southern Research Institute, priority 2020, dated 2022)
Like-named read-outs stand apart in the source and are kept apart here. One block for each molecule: values may come before it.

Legend:
[1] = Physical stability of solid forms under accelerated aging conditions (AAC, 25° C./60% RH, two days), HT-XRPD; conditions: for conversion after storage at 25° C., 60% relative humidity: two days; for AAC (form found after storage): Table 4, storage at 25° C., 60% relative humidity
Protocol: All solids were exposed to accelerated aging conditions (2 days at 25° C./60% RH) and re-analyzed by HT-XRPD.
Subsequently, the solids were placed at 25° C./60% RH for two days (AAC) and re-analyzed by XRPD.
Subsequently, all solids were exposed to accelerated aging conditions for two days (AAC, 25° C./60% RH) and re-analyzed by HT-XRPD.
Subsequently, all the solids were exposed to accelerated aging conditions (25° C./60% RH) for two days and re-analyzed by HT-XRPD.
All solids were then exposed to accelerated aging conditions (2 days at 25° C./60% RH) followed by HT-XRPD re-analysis.
Subsequently, all solids were exposed to accelerated aging conditions (2 days at 25° C./60% RH) and re-analyzed by HT-XRPD.
Subsequently, all solids were exposed to accelerated aging conditions (25° C./60% RH) for two days and then re-analyzed by HT-XRPD.

[2] = in vivo, 2 mg/kg
in vivo = conditions: male, SD, rat, 2 mg/kg; for concentration at 0.25 h / concentration at 0.5 h / concentration at 1 h / concentration at 2 h / concentration at 4 h / concentration at 6 h / concentration at 8 h / concentration at 24 h: Concentration (plasma); for AUC(0-inf) / AUC(0-t) / Cmax / MRT inf / half-life / Tmax: po; for AUC(0-inf): AUCInf; for AUC(0-t): AUClast; for MRT inf: MRTInf_obs
[3] = Dissolution rate (IDR) at pH 1.2, 6.5 and 5.0; assay type: physicochemical

SMILES: Nc1ncn([C@H]2C[C@H](O)[C@@H](CO)S2)c(=O)n1 [Form F, 5-Aza-4′-thio-2′-deoxycytidine]
- Concentration (plasma), individual rat ([2]; male, SD, 0.25 h): 394 ng/mL
- Concentration (plasma), individual rat ([2]; male, SD, 0.5 h): 780 ng/mL
- Concentration (plasma), individual rat ([2]; male, SD, 1 h): 982 ng/mL
- Concentration (plasma), individual rat ([2]; male, SD, 2 h): 764 ng/mL
- Concentration (plasma), individual rat ([2]; male, SD, 4 h): 377 ng/mL
- Concentration (plasma), individual rat ([2]; male, SD, 6 h): 285 ng/mL
- Concentration (plasma), individual rat ([2]; male, SD, 8 h): 199 ng/mL
- Concentration (plasma), individual rat ([2]; male, SD, 24 h): 3.81 ng/mL
- AUCInf, individual rat ([2]; male, SD, po): 5435 ng·h/mL
- AUClast, individual rat ([2]; male, SD, po): 5419 ng·h/mL
- Cmax, individual rat ([2]; male, SD, po): 982 ng/mL
- MRTInf_obs, individual rat ([2]; male, SD, po): 4.63 h
- T1/2, individual rat ([2]; male, SD, po): 2.86 h
- AUC values higher than SM ([2]; male, SD, rat): about 30%
- AUC_%Extrap_obs, Mean ([2]; male, SD, rat): 0.402%
- AUClast/D, Mean ([2]; male, SD, rat): 2900 ng·h/mL per mg/kg
- Cmax value relative to SM ([2]; rat): about 1.4 times
- concentration at 0.25 h (in vivo; Mean): 310 ng/mL
- concentration at 0.5 h (in vivo; Mean): 768 ng/mL
- concentration at 1 h (in vivo; Mean): 934 ng/mL
- concentration at 2 h (in vivo; Mean): 755 ng/mL
- concentration at 4 h (in vivo; Mean): 457 ng/mL
- concentration at 6 h (in vivo; Mean): 324 ng/mL
- concentration at 8 h (in vivo; Mean): 222 ng/mL
- concentration at 24 h (in vivo; Mean): 5.43 ng/mL
- concentration at 0.25 h (in vivo; individual rat): 225 ng/mL
- concentration at 0.5 h (in vivo; individual rat): 755 ng/mL
- concentration at 1 h (in vivo; individual rat): 886 ng/mL
- concentration at 2 h (in vivo; individual rat): 746 ng/mL
- concentration at 4 h (in vivo; individual rat): 536 ng/mL
- concentration at 6 h (in vivo; individual rat): 362 ng/mL
- concentration at 8 h (in vivo; individual rat): 245 ng/mL
- concentration at 24 h (in vivo; individual rat): 7.04 ng/mL
- AUC(0-inf) (in vivo; Mean): 5820 ng·h/mL
- AUC(0-inf) (in vivo; individual rat): 6210 ng·h/mL
- AUC(0-t) (in vivo; Mean): 5800 ng·h/mL
- AUC(0-t) (in vivo; individual rat): 6180 ng·h/mL
- Cmax (in vivo; Mean): 934 ng/mL
- Cmax (in vivo; individual rat): 886 ng/mL
- MRT inf (in vivo; Mean): 4.86 h
- MRT inf (in vivo; individual rat): 5.09 h
- half-life (in vivo; T1/2, Mean): 3 h
- half-life (in vivo; T1/2, individual rat): 3.15 h
- Tmax (in vivo; Mean): 1 h
- Tmax (in vivo; individual rat): 1 h
- IDR ([3]; FaSSIF, pH 6.5): 2.7 ± 0.05 mg/mL/Cm^2/min
- IDR ([3]; FeSSIF, pH 5.0): 6.0 ± 0.70 mg/mL/Cm^2/min
- IDR ([3]; SGF, pH 1.2): 7.0 ± 1.26 mg/mL/Cm^2/min

SMILES: Nc1ncn([C@H]2C[C@H](O)[C@@H](CO)S2)c(=O)n1 [Form E, 5-Aza-4′-thio-2′-deoxycytidine]
- AAC (form found after storage) ([1]; sample obtained by ECP from DMA/TBME (80/20, v/v)): A + F
- conversion after storage at 25° C., 60% relative humidity ([1]; text): converts to Form A
- conversion after storage at 25° C., 60% relative humidity ([1]; text, listed as E): convert to Form A

SMILES: Nc1ncn([C@H]2C[C@H](O)[C@@H](CO)S2)c(=O)n1 [Form J, 5-Aza-4′-thio-2′-deoxycytidine]
- conversion after storage at 25° C., 60% relative humidity ([1]; text): converts to Form A
- conversion after storage at 25° C., 60% relative humidity ([1]; text, listed as J): convert to Form A

SMILES: Nc1ncn([C@H]2C[C@H](O)[C@@H](CO)S2)c(=O)n1 [A + D2, 5-Aza-4′-thio-2′-deoxycytidine]
- AAC (form found after storage) ([1]; sample obtained by ECP from MeOH): A + L

SMILES: Nc1ncn([C@H]2C[C@H](O)[C@@H](CO)S2)c(=O)n1 [Form I, 5-Aza-4′-thio-2′-deoxycytidine]
- conversion after storage at 25° C., 60% relative humidity ([1]; text): converts to Form A
- conversion after storage at 25° C., 60% relative humidity ([1]; text, listed as I): convert to Form A

SMILES: Nc1ncn([C@H]2C[C@H](O)[C@@H](CO)S2)c(=O)n1 [Form K, 5-Aza-4′-thio-2′-deoxycytidine]
- conversion after storage at 25° C., 60% relative humidity ([1]; text): converted to Form F
- conversion after storage at 25° C., 60% relative humidity ([1]; text, listed as K): convert to Form A

SMILES: Nc1ncn([C@H]2C[C@H](O)[C@@H](CO)S2)c(=O)n1 [Form C2, 5-Aza-4′-thio-2′-deoxycytidine]
- conversion after storage at 25° C., 60% relative humidity ([1]; text, listed as C2): convert to Form A

SMILES: Nc1ncn([C@H]2C[C@H](O)[C@@H](CO)S2)c(=O)n1 [Form B, 5-Aza-4′-thio-2′-deoxycytidine]
- physical stability ([1]; in words): physically unstable
- conversion after storage at 25° C., 60% relative humidity ([1]; text): converted to Form A
- conversion after storage at 25° C., 60% relative humidity ([1]; text, listed as B): convert to Form A

SMILES: Nc1ncn([C@H]2C[C@H](O)[C@@H](CO)S2)c(=O)n1 [Form H, 5-Aza-4′-thio-2′-deoxycytidine]
- AAC (form found after storage) ([1]; sample from the method/solvent of that table row): F + H
- conversion after storage at 25° C., 60% relative humidity [1]: convert to Form A
- conversion of the form ([1]; when obtained from NMP): converted to Form F
- conversion of the form ([1]; when obtained from other solvents): converted to Form A

Results, then the molecule that gave them:

- conversion after storage at 25° C., 60% relative humidity ([1]; text, listed as D2): convert to Form A
SMILES: Nc1ncn([C@H]2C[C@H](O)[C@@H](CO)S2)c(=O)n1 [Form D2, 5-Aza-4′-thio-2′-deoxycytidine]

- conversion after storage at 25° C., 60% relative humidity ([1]; text): convert to Form A
- conversion after storage at 25° C., 60% relative humidity ([1]; text, listed as G1): convert to Form A
SMILES: Nc1ncn([C@H]2C[C@H](O)[C@@H](CO)S2)c(=O)n1 [Form G1, 5-Aza-4′-thio-2′-deoxycytidine]

- conversion after storage at 25° C., 60% relative humidity ([1]; text): convert to Form A
- conversion after storage at 25° C., 60% relative humidity ([1]; text, listed as G2): convert to Form A
SMILES: Nc1ncn([C@H]2C[C@H](O)[C@@H](CO)S2)c(=O)n1 [Form G2, 5-Aza-4′-thio-2′-deoxycytidine]
